# Experimental data published in patent US8192734B2, “Compositions and methods for bone strengthening” (Cornell University, priority 2007, dated 2012).
# Columns and labels:
# [1] = system: pigs fed P-adequate corn-soybean meal basal diet; experiment: Expt 2: BMC, BMD and bone area by dual energy X-ray absorptiometry; type: in vivo, pig; details: main effect, phytase 2,000 U/kg or Sr 50 mg/kg
# Procedure: In Experiment 2, bone mineral content (BMC, g) and bone mineral density (BMD, g/cm^2) of 3rd and 4th metatarsals from the left foot and femur from the left leg of each pig were measured. After being thawed to room temperature, entire bones were placed on a rice bag (to remove background effects) and scanned by dual energy X-ray absorptiometry using the GE Lunar Prodigy instrument (GE Lunar, Prodigy, Madison Wis.) in the small animal scan mode. Values of BMC and BMD were predicted by analysis of scans using Prodigy software (version 10.10.038).
# [2] = system: pigs fed P-adequate corn-soybean meal basal diet; experiment: Expt 2: metatarsal and femur breaking strength, three-point bending test; type: in vivo, pig; details: main effect, phytase 2,000 U/kg or Sr 50 mg/kg
# Procedure: Third and 4th metatarsals in both experiments and femur (right leg) in Experiment 2 were prepared by manually removing surrounding skin, muscle and other tissues. Bones were stored in closed plastic bags at 4° C. until strength analysis. Maximal breaking load was measured using an Instron 4500 Machine (Canton, Mass.) at room temperature (23° C.) by subjecting each bone to a three-point bending test^(28). During mechanical tests, force was applied to the center of the bone held by supports 2.0 cm apart for metatarsals and 3.3 cm apart for femur. The crosshead speed was set at 50 mm/min and the sample rate was 10 points/s. Final strength was determined from load-displacement curves indicating the maximum loads. The metatarsal breaking strength was expressed as the mean strength of four bones from both left and right feet of pigs in Experiment 1, and as the mean of the two bones from the right foot of pigs in Experiment 2.
# [3] = system: pigs fed P-adequate corn-soybean meal basal diet; experiment: Expt 2: femur geometrical and strength properties; type: in vivo, pig; details: phytase 2000 U/kg and/or Sr 50 mg/kg, n=6
# Procedure: A three-point bending test was conducted on the dissected bones to generate load-deformation curves with an Instron Model 5566 (Norwood, Mass.). Mechanical properties of bones were calculated using formula as previously described^(29). Bone cross sections were cut at the mid-point of loading and used to determine area moment of inertia. Cross sections were submersed for 5 min in a 0.4 mol/L sodium hypochlorite solution to remove periosteum and marrow tissue, and then embedded in blue clay (Play-Doh, Hasbro, Pawtucket, R.I.) to prevent depth-of-field distortions and to enhance contrasts. The embedded sections were scanned with a flat-bed scanner (Epson Perfection Model 3490, Long Beach, Calif.) and analyzed using Image J software (30) to measure the x-y coordinates of bone pixels.
# [4] = system: pigs fed P-adequate corn-soybean meal basal diet; experiment: Expt 2: metatarsal and femur mineral concentrations (ICP); type: in vivo, pig
# Procedure: After the breaking strength analysis, samples (˜100 to 200 mg) of metatarsals in both experiments and femur in Experiment 2 from the right legs were used for mineral analysis. Cortical bones were isolated after removing attached connective tissue using a stainless steel scalpel and collecting individual shards using needle-nosed pliers with plastic-covered clamps. […] Concentrations of individual elements in the dried bone samples were measured using inductively coupled argon plasma spectrophotometer (ICAP 61E Trace Analyzer, Thermo Jarell Ash corporation, Franklin, Mass.)(31). Samples were digested in a mixture of HNO3 and HClO4 (9:1, vol/vol), and then diluted in 5% HNO3 before analysis.
# rats = details: cited from earlier work
# mice = details: cited from earlier work
# [5] = main effect of Sr 50 mg/kg, P<0.0001
# [6] = phytase 2000 U/kg and/or Sr 50 mg/kg, n=6
compound,measurement,setting,value
"O=C([O-])[O-].[Sr+2] [Sr, SrCO3]","elevation of BMD of the two bones (metatarsal, femur)",[1],6%
same,"enhancement of BMC in both bones (metatarsal, femur)",[1],6 to 8%
same,improvement in breaking strength of femur,[2],10%
same,improvement in breaking strength of metatarsals,[2],11%
same,femur Cross-sectional area,[3],151 mm^2
same,femur Cross-sectional radius,[3],9.0 mm
same,femur Maximum bending moment,[3],2286 kg × mm
same,femur Maximum stress,[3],4.3 kg/mm^2
same,femur Modulus of elasticity,[3],50 kg/mm^2
same,femur Moment of inertia,[3],4891 mm^4
same,femur Strain,[3],0.05
same,femur Yield bending moment,[3],1384 kg-mm
same,femur Yield stress,[3],2.6 kg/mm^2
same,elevation of metatarsal concentration of Sr,[4]; [5],4 fold
same,enhancement of femur concentration of Sr,[4]; [5],3.9 fold
same,femur Cr concentration,[4]; [6],7.0 mg/kg
same,femur Fe concentration,[4]; [6],6.9 mg/kg
same,femur Mg concentration,[4]; [6],5.4 g/kg
same,femur Mn concentration,[4]; [6],0.6 mg/kg
same,femur Na concentration,[4]; [6],8.0 g/kg
same,femur P concentration,[4]; [6],176.3 g/kg
same,femur S concentration,[4]; [6],1.1 g/kg
same,femur Sr concentration,[4]; [6],418.9 mg/kg
same,femur Zn concentration,[4]; [6],209.6 mg/kg
same,metatarsal Cr concentration,[4]; [6],26.6 mg/kg
same,metatarsal Fe concentration,[4]; [6],23.5 mg/kg
same,metatarsal Mg concentration,[4]; [6],3.5 g/kg
same,metatarsal Mn concentration,[4]; [6],2.8 mg/kg
same,metatarsal Na concentration,[4]; [6],6.8 g/kg
same,metatarsal P concentration,[4]; [6],88.1 g/kg
same,metatarsal S concentration,[4]; [6],1.0 g/kg
same,metatarsal Sr concentration,[4]; [6],330.6 mg/kg
same,metatarsal Zn concentration,[4]; [6],146.8 mg/kg
[Br-].[Br-].[Sr+2] [strontium bromide],LD50,rats,1 g/kg body weight
[Cl-].[Cl-].[Sr+2] [strontium chloride],LD50,mice,147.6 mg/kg body weight
[I-].[I-].[Sr+2] [strontium iodide],LD50,rats,800 mg/kg body weight
strontium acetate,LD50,rats,1.16 mmol/kg
